Like-named read-outs stand apart in the source and are kept apart here.
System: E. coli
Assay type: cell-based, Escherichia coli
Conditions: 24 h contact time
Experimental: Escherichia coli ATCC 11229 (Culti-loops, Remel Europe, Dartford, Kent, UK) and Pseudomonas aeruginosa ATCC 15442 (Cuti-loops, Remel Europe, Dartford, Kent, UK) were selected as model Gram-negative organisms for the challenge testing of the antimicrobial coatings. Each bacterial strain was streaked for isolated colonies on Tryptic Soy Agar (TSA) plates (Difco, Becton Dickinson, Sparks, Md., U.S.A.) and incubated at 37° C. for 12 to 18 hours. Broth cultures were prepared by first picking 1-2 isolated colonies from TSA plates and inoculating 5 mL Tryptic Soy Broth (TSB; Difco, Becton Dickinson, Sparks, Md., U.S.A.) in a 16 mm test tube. This culture was grown in a shaking water bath at 150 RPM for 8 hours at 37° C. After the eight hours, 125 μL of this culture was added to 50 mL of TSB in a side-arm Klett flask and grown for approximately 8 hours in shaking water bath (150 RPM) at 37° C. The bacterial broths were grown to an A590 of 1.2-1.5, which correlated to approximately 10^9 CFU (colony forming units)/mL. 25 mL of this broth were transferred to a sterile 30 mL Oakridge tube and centrifuged at 12,000×g for 10 minutes at 4° C. (Sorval SS34 rotor) to pelletize the bacteria. The bacterial pellet was washed once and resuspended in 25 mL of phosphate buffer solution (PBS; BBL, FTA Hemaglutination Buffer, Becton Dickinson, Sparks, Md., U.S.A.). The suspension was diluted with PBS to achieve the target range of 10^5-10^6 CFU/mL and used to inoculate the slides containing antibacterial coatings.
Xylene/methanol (5:1 by weight) is used to dissolve the silver surfactants to facilitate homogeneously mixing with the alkyd resin composition.
A minus sign (−) denotes no growth, a plus sign (+) denotes confluent growth, and a capital P (P) denotes […].
Xylene/methanol (5:1 by weight) is used to dissolve the silver surfactants to facilitate homogeneously mixing with the acrylic resin composition.
The same laboratory experimental solvent based acrylic paint described in Example 34 is used to challenge E. coli by adding various levels of the invention silver anionic surfactants as described in Example 34.
A commercially available 2K epoxy resin paint is obtained from a local paint store (Sherwin Williams High Solids Epoxy Tile Clad HS; Part A B62WC11; Part B B60VZ75, The Sherwin Williams Company) and the same silver anionic surfactants described in Example 35 are used to prepare test coatings on microscope slides containing various levels of silver ion. These surfactants are dissolved in xylene/methanol (5:1 by weight) to facilitate their quantitative addition to the coating mixture.

CCCCC(CC)COC(=O)CC(C(=O)OCC(CC)CCCC)S(=O)(=O)[O-].[Ag+] (stereo not drawn) [AgAOT]
E. coli growth on coating (alkyd resin paint, 0.0012 weight % Ag in coating): +
E. coli growth on coating (alkyd resin paint, 0.003 weight % Ag in coating): +
E. coli growth on coating (alkyd resin paint, 0.012 weight % Ag in coating): −
E. coli growth on coating (alkyd resin paint, 0.03 weight % Ag in coating): −
E. coli growth on coating (alkyd resin paint, 0.06 weight % Ag in coating): −
E. coli growth on coating (alkyd resin paint, 0.12 weight % Ag in coating): −
Silver level effective at preventing any growth (alkyd resin paint): 0.012 % w/w
Silver level partially effective (alkyd resin paint): 0.006 % w/w
E. coli growth on coating (commercial 2K epoxy paint, 0.0012 weight % Ag in coating): +
E. coli growth on coating (commercial 2K epoxy paint, 0.003 weight % Ag in coating): +
E. coli growth on coating (commercial 2K epoxy paint, 0.006 weight % Ag in coating): +
E. coli growth on coating (commercial 2K epoxy paint, 0.012 weight % Ag in coating): +
E. coli growth on coating (commercial 2K epoxy paint, 0.03 weight % Ag in coating): +
E. coli growth on coating (commercial 2K epoxy paint, 0.06 weight % Ag in coating): −
E. coli growth on coating (commercial 2K epoxy paint, 0.12 weight % Ag in coating): −
Silver level giving complete inhibition of growth (commercial 2K epoxy paint): 0.06 % w/w
E. coli growth on coating (commercial solvent borne acrylate paint, 0.0012 weight % Ag in coating): +
E. coli growth on coating (commercial solvent borne acrylate paint, 0.003 weight % Ag in coating): +
E. coli growth on coating (commercial solvent borne acrylate paint, 0.006 weight % Ag in coating): +
E. coli growth on coating (commercial solvent borne acrylate paint, 0.012 weight % Ag in coating): +
E. coli growth on coating (commercial solvent borne acrylate paint, 0.06 weight % Ag in coating): −
E. coli growth on coating (commercial solvent borne acrylate paint, 0.12 weight % Ag in coating): −
Silver level partially effective (commercial solvent borne acrylic paint): 0.03 % Ag w/w
E. coli growth on coating (laboratory solvent borne acrylate paint, 0.0012 weight % Ag in coating): +
E. coli growth on coating (laboratory solvent borne acrylate paint, 0.003 weight % Ag in coating): +
E. coli growth on coating (laboratory solvent borne acrylate paint, 0.006 weight % Ag in coating): +
E. coli growth on coating (laboratory solvent borne acrylate paint, 0.012 weight % Ag in coating): +
E. coli growth on coating (laboratory solvent borne acrylate paint, 0.03 weight % Ag in coating): +
E. coli growth on coating (laboratory solvent borne acrylate paint, 0.06 weight % Ag in coating): −
E. coli growth on coating (laboratory solvent borne acrylate paint, 0.12 weight % Ag in coating): −
